Our source for the IC90 and MIC values is ChEMBL document CHEMBL1147621, “The discovery of biaryl acids and amides exhibiting antibacterial activity against Gram-positive bacteria” (2004).

A word on the IC90: it is the concentration at which the effect reaches the 90% level. The low end stands for greater potency, the high end for weaker potency. By MIC is commonly meant the lowest concentration that inhibits growth of the organism.

Values after ≈ are worked out from the molar mass of the structure shown. Active and inactive are the calls of the source. No cut-off for these calls is given here.

Assay [1] concerns Staphylococcus aureus. As to the kind of experiment: Antibacterial activity of compound to inhibit the growth of Staphylococcus aureus 8325. The format is functional.
Assay [2] deals with Bacteria. As to the kind of experiment: Antibacterial activity of compound to inhibit the growth of Gram-positive bacteria. The assay is classed as functional.
Assay [3] concerns Bacteria. As to the kind of experiment: Antibacterial activity of compound to inhibit the growth of Gram-positive bacteria; Range is 5-11 ug/mL. The format is functional.
In assay [4] the test system is Enterococcus faecium. As to the kind of experiment: Antibacterial activity against Enterococcus faecium F24910. The format is functional.
Assay [5] concerns Enterococcus faecium. As to the kind of experiment: Antibacterial activity against E. species. T66429. The format is functional.
The test system of another assay is Escherichia coli. As to the kind of experiment: Antibacterial activity against Escherichia coli H28233. The format is functional, organism-based.
Assay [6] has as its system Streptococcus sp. 'group A'. As to the kind of experiment: Antibacterial activity against Grp A Strep T32098. The assay is classed as functional.
For assay [7], the system named is Pseudomonas aeruginosa. In words: Antibacterial activity against Pseudomonas aeruginosa W30279. The format is functional, organism-based.
For assay [8], the system named is Pseudomonas aeruginosa. As to the kind of experiment: Antibacterial activity against Pseudomonas aeruginosa W30298. The format is functional, organism-based.
Assay [9] has as its system Staphylococcus aureus. In words: Antibacterial activity against Staphylococcus aureus W30078c. The format is functional.
The subject of assay [10] is Staphylococcus aureus. In words: Antibacterial activity against Staphylococcus aureus F2490. The format is functional.
For assay [11], the system named is Streptococcus sp. 'group A'. In words: Antibacterial activity against Grp A Strep S54408. The assay is classed as functional.
Assay [12] relates to Staphylococcus aureus. As to the kind of experiment: Antibacterial activity against Staphylococcus aureus 8325. The format is functional.
For assay [13], the system named is Bacteria. As to the kind of experiment: Antibacterial activity of compound to inhibit the growth of Gram-positive bacteria; Range is 8-12 ug/mL. The assay is classed as functional.

`Cc1ccc(C(=O)N[C@@H](CC2CCCCC2)C(=O)O)cc1-c1ccc(-c2ccccc2)cc1` registered an IC90 in the assay on Staphylococcus aureus [1] of 3 µg/mL (≈ 6.79 µM).
As to `NC(=O)c1ccc(Cl)c(-c2ccc(Cl)cc2)c1`, in the assay with Bacteria [2], the IC90 was greater than 50 µg/mL.
Same read-out and setting: with `NC(=O)c1ccc(Cl)c(-c2ccc(-c3ccccc3)cc2)c1` the figure was greater than 50 µg/mL.
Take `O=C(N[C@H](CC1CCCCC1)C(=O)O)c1ccc(Cl)c(-c2ccc(Cl)cc2)c1`: the 90% effect level in the assay with Bacteria [3] (IC90) was put at 11 µg/mL (≈ 26.2 µM).
`O=C(N[C@@H](CC1CCCCC1)C(=O)O)c1ccc(Cl)c(-c2ccc(Cl)cc2)c1`: the MIC was greater than 20 µg/mL against Enterococcus faecium [4]; 20 µg/mL (≈ 47.6 µM) against Enterococcus faecium [5]; 20 µg/mL (≈ 47.6 µM) in assay [6]; 20 µg/mL (≈ 47.6 µM) in the assay on Staphylococcus aureus [9]; 20 µg/mL (≈ 47.6 µM) against Staphylococcus aureus [10]; 10 µg/mL (≈ 23.8 µM) in [11]. The compound further registered an MIC with Staphylococcus aureus [12] of 20 µg/mL (≈ 47.6 µM). Moreover, the MIC entry in the assay on Escherichia coli, with Pseudomonas aeruginosa [7] and in the assay with Pseudomonas aeruginosa [8] was “inactive” each time. The same compound registered an IC90 with Staphylococcus aureus [1] of 10 µg/mL (≈ 23.8 µM).
In the case of `C[C@H](NC(=O)c1ccc(Cl)c(-c2ccc(Cl)cc2)c1)C(=O)O`, in the assay on Bacteria [2], the IC90 is greater than 50 µg/mL.
On the same count and under the same terms, with `O=C(N[C@@H](CC1CCNCC1)C(=O)O)c1ccc(Cl)c(-c2ccc(Cl)cc2)c1` the figure was greater than 50 µg/mL.
With `O=C(N[C@@H](CC1CCCCC1)C(=O)O)c1cccc(-c2ccc(-c3ccccc3)cc2)c1`, the MIC with Enterococcus faecium [4] amounted to 20 µg/mL (≈ 46.8 µM); against Enterococcus faecium [5] it was 20 µg/mL (≈ 46.8 µM); in [6], 20 µg/mL (≈ 46.8 µM); against Staphylococcus aureus [9], 20 µg/mL (≈ 46.8 µM); in the assay on Staphylococcus aureus [10] it was 20 µg/mL (≈ 46.8 µM); in [11], 10 µg/mL (≈ 23.4 µM). In the assay with Staphylococcus aureus [12], this compound had an MIC of 20 µg/mL (≈ 46.8 µM). The MIC entry in the assay on Escherichia coli, in the assay with Pseudomonas aeruginosa [7] and with Pseudomonas aeruginosa [8] was “inactive” in each case. The compound also showed an IC90 with Staphylococcus aureus [1] of 4 µg/mL (≈ 9.36 µM).
In turn, `O=C(NC(C(=O)O)c1ccccc1)c1ccc(Cl)c(-c2ccc(-c3ccccc3)cc2)c1` (configuration not stated) yielded an IC90 with Bacteria [2] of 10 µg/mL (≈ 22.6 µM).
The same measure, in the same setting: with `O=C(N[C@@H](CC1CCCC1)C(=O)O)c1ccc(Cl)c(-c2ccc(Cl)cc2)c1` the figure was 18 µg/mL (≈ 44.3 µM).
As for `O=C(N[C@@H](CC1CCCCC1)C(=O)O)c1ccc(Cl)c(-c2cccc(Cl)c2)c1`, the MIC came out at 20 µg/mL (≈ 47.6 µM) in the assay with Enterococcus faecium [4]; 20 µg/mL (≈ 47.6 µM) against Enterococcus faecium [5]; 20 µg/mL (≈ 47.6 µM) in [6]; 20 µg/mL (≈ 47.6 µM) in the assay on Staphylococcus aureus [9]; 15 µg/mL (≈ 35.7 µM) against Staphylococcus aureus [10]; 10 µg/mL (≈ 23.8 µM) in [11]. The compound further had an MIC against Staphylococcus aureus [12] of 15 µg/mL (≈ 35.7 µM). Besides, the MIC result in the assay with Escherichia coli, in the assay with Pseudomonas aeruginosa [7] and in the assay on Pseudomonas aeruginosa [8] was “inactive” each time. Also, in the assay with Staphylococcus aureus [1], the 90% effect level (IC90) was put at 8 µg/mL (≈ 19 µM).
As to `COC(=O)[C@H](CC1CCCCC1)NC(=O)c1ccc(Cl)c(-c2ccc(Cl)cc2)c1`, the IC90 in the assay with Bacteria [2] was greater than 50 µg/mL.
On the same count and under the same terms, with `O=C(N[C@@H](Cc1ccccc1)C(=O)O)c1ccc(Cl)c(-c2ccc(Cl)cc2)c1` the figure was greater than 50 µg/mL.
For `NC(=O)[C@H](CC1CCCCC1)NC(=O)c1ccc(Cl)c(-c2ccc(Cl)cc2)c1`, in the assay with Bacteria [13], the IC90 turned out to be 12 µg/mL (≈ 28.6 µM).
In the assay with Staphylococcus aureus [1], `Cc1cc(C(=O)N[C@@H](CC2CCCCC2)C(=O)O)ccc1-c1ccc(-c2ccccc2)cc1` came in with an IC90 of 2 µg/mL (≈ 4.53 µM).
Turning to `O=C(O)[C@@H]1CCCCN1C(=O)c1ccc(Cl)c(-c2ccc(-c3ccccc3)cc2)c1`, the IC90 in the assay with Bacteria [2] turned out to be 25 µg/mL (≈ 59.5 µM).
Same read-out and setting: with `O=C(O)c1ccc(Cl)c(-c2ccc(Cl)cc2)c1` the figure was greater than 50 µg/mL.
